What is called inhibition is how much of the control response was suppressed. In general, IC50 refers to the concentration needed to halve the response being measured. The low end stands for greater potency, the high end for weaker potency. The GI50 is the concentration at which growth is held to half of that of the control.

Structures are written as SMILES.

The values that follow come from ChEMBL document CHEMBL1152407, “Identification of inhibitors of checkpoint kinase 1 through template screening” (J Med Chem, 2009).

Experiment [1] addresses T1, Serine/threonine-protein kinase Chk1 (Homo sapiens) (UniProt O14757).
T1 sequence (whole entry): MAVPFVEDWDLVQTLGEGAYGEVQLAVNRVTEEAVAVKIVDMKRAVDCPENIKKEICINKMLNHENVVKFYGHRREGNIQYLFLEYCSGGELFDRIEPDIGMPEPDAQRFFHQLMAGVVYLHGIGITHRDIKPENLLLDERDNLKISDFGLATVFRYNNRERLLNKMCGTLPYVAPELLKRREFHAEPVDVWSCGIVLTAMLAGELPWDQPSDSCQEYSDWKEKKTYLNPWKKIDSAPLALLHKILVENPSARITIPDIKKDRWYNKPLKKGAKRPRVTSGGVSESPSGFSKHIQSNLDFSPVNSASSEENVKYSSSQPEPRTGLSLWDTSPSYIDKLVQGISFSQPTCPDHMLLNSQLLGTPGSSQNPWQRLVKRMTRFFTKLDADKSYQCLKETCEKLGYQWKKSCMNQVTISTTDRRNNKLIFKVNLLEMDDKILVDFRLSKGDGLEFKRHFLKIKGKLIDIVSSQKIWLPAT
As to the kind of experiment: Inhibition of CHK1 at 250 uM by alphascreen assay.

Experiment [2] deals with T1, Serine/threonine-protein kinase Chk1 (Homo sapiens). As to the kind of experiment: Inhibition of CHK1 at 250 uM by alphascreen assay in presence of 0.01% Triton-X100. On the technique in general: Alpha assays give light when donor and acceptor beads are brought close together.
Experiment [3] has as its target Cyclin-dependent kinase 1 (Homo sapiens) (UniProt P06493). The experiment is described as follows: Inhibition of CDK1 assessed as Rb (ser780) biotinylated peptide phosphorylation at 100 uM by DELFIA assay.
Experiment [4] can be described thus: Selectivity ratio of IC50 for CHK2 to IC50 for CHK1.
Experiment [5] has as its target T2, Serine/threonine-protein kinase Chk1 (Homo sapiens, UniProt O14757).
T2 sequence (O14757 whole entry): T1 sequence (whole entry)
Description: Inhibition of CHK1 assessed as CDC25C peptide phosphorylation by DELFIA assay

Experiment [6] addresses Serine/threonine-protein kinase Chk2 (Homo sapiens, UniProt O96017).
Description: Inhibition of CHK2 assessed as CDC25C peptide phosphorylation by DELFIA assay
The next experiment relates to HT-29. As to the kind of experiment: cells. As to conditions: Homo sapiens, HT-29, 96 h.
Experiment [7] concerns the target T1, Serine/threonine-protein kinase Chk1 (Homo sapiens). The experiment is described as follows: Inhibition of CHK1 assessed as CDC25C peptide phosphorylation at 100 uM by DELFIA assay.

Chain of Serine/threonine-protein kinase Chk2 (O96017 whole entry): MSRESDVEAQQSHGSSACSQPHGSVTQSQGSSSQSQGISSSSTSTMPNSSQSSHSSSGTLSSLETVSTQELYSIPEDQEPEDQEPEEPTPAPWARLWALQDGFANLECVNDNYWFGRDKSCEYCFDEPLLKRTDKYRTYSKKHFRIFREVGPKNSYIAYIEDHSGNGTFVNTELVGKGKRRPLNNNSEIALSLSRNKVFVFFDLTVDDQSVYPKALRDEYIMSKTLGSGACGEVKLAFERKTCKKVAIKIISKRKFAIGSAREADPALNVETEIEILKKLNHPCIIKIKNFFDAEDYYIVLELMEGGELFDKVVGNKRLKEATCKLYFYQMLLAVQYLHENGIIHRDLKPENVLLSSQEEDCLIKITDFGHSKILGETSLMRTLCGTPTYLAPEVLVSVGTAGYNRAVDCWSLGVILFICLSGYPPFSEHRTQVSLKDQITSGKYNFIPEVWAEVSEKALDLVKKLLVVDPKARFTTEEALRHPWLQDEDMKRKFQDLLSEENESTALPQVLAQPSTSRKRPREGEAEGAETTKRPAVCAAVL
Chain of Cyclin-dependent kinase 1 (Homo sapiens) (P06493 whole entry, looked up): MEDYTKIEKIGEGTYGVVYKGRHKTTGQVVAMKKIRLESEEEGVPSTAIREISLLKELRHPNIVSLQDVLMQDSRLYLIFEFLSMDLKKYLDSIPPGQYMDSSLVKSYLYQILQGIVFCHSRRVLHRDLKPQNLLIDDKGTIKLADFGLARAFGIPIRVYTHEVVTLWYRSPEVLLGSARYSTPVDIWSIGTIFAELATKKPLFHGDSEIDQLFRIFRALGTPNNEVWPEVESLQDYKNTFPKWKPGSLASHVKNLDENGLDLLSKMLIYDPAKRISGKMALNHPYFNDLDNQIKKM
Description for HT-29: Cytotoxicity against human HT-29 cells after 96 hrs by SRB assay

Regarding `Fc1ccc(-c2onc3ccc(-c4cc[nH]n4)cc23)cc1`, the inhibition in experiment [1] is 26.4%; in experiment [2] it was 6.5%.
In the case of `NCC1CN(c2c(-c3ccsc3)cnc3[nH]ncc23)CCO1` (stereo not drawn), the inhibition in experiment [3] worked out at 48%. Besides, the Ratio IC50 in experiment [4] is 8. The IC50 was 0.29 µM in experiment [5] and 4.6 µM in experiment [6]. The same compound had a GI50 in the experiment with HT-29 of 10.5 µM.
As for `Clc1ccc2c(Nc3ccccc3)ncnc2c1`, the inhibition in experiment [1] was determined as 41.9%; in experiment [2] it was 41.5%.
As to `CCOC(=O)c1cnc2[nH]ncc2c1N1CCOC(CN)C1` (stereo not drawn), the inhibition in experiment [3] was 3%.
On to `CC(C)(C)Nc1nc(N)c(C(=O)c2ccccc2)s1`, for which the inhibition in experiment [1] worked out at 36.9%; in experiment [2], 39.9%; in experiment [7], 33%.
For `CC(=O)Nc1nc2c(s1)C(=O)NCCC2` the same measures were 51.4%, 43.1% and 27%.
Turning to `COc1cccc(CNc2ncnc3cc(OC)c(OC)cc23)c1`, the inhibition came out at 50.1% in experiment [1] and 52.8% in experiment [2].
For the compound `NCC1CN(c2c(Br)cnc3[nH]ncc23)CCO1` (stereo not drawn), the inhibition in experiment [3] amounted to 37%. For the same compound, the Ratio IC50 in experiment [4] is 8. Also, the IC50 in experiment [6] came to 7.4 µM. The same compound showed a GI50 with HT-29 of 16 µM.
Regarding `O=C(O)CC1CN(c2ncnc3[nH]cnc23)CCO1` (stereo not drawn), in experiment [7], the inhibition is 22%.
Same read-out and setting: with `O=C(O)C1COCCN1c1ncnc2[nH]cnc12` (stereo not drawn) the figure was 12%.
`O=c1[nH]cnc2sc3c(c12)CCCC3`: the inhibition in experiment [1] amounted to 38.5%; in experiment [2], 45.3%.
In the case of `NC[C@@H]1CN(c2c(-c3ccccc3)cnc3[nH]ncc23)CCO1`, the inhibition in experiment [3] came to 43%. The compound further had an IC50 in experiment [6] of 5.9 µM. Also, it took 40 µM to inhibit growth in the experiment on HT-29 by half (GI50).
For the compound `c1nc(N2CCOCC2)c2nc[nH]c2n1`, the inhibition in experiment [1] is 75.7%; in experiment [2], 63%.
On to `CC(C)(C)OC(=O)NCC1CN(c2ncnc3[nH]cnc23)CCO1` (stereo not drawn), for which, in experiment [7], the inhibition turned out to be 43%.
With `CCCNc1nc2ccccc2c(=O)[nH]1`, the figures for the inhibition in experiment [1], in experiment [2] and in experiment [7] were 40.9%, 14.2% and 0%, respectively.
For `CSC1=N/C(=C\c2cccs2)C(=O)N1` the same measures were 35.7%, 33.5% and 32%.
